Reference: paper PMC11012124, “Synthesis of Novel Triazine-Based Chalcones and 8,9-dihydro-7H-pyrimido[4,5-b][1,4]diazepines as Potential Leads in the Search of Anticancer, Antibacterial and Antifungal Agents” (International Journal of Molecular Sciences, 2024)

How the values were obtained:
[1] = Hemolytic activity, spectrophotometric; assay type: cell-based, human; details: human, human red blood cells (huRBC), 5% hematocrit, 200 μg/mL, 37 °C
[2] = tested on: CCRF-CEM; test: cells; details: Homo sapiens, 48 h
[3] = tested on: K-562; test: cells; details: Homo sapiens, K562, 48 h
[4] = tested on: MOLT-4; test: cells; details: Homo sapiens, MOLT-4, 48 h
[5] = tested on: A549/ATCC; test: cells; details: Homo sapiens, A549, 48 h
[6] = tested on: EKVX; test: cells; details: Homo sapiens, 48 h
[7] = tested on: HOP-62; test: cells; details: Homo sapiens, HOP-62, 48 h
[8] = tested on: HOP-92; test: cells; details: Homo sapiens, HOP-92, 48 h
[9] = tested on: NCI-H23; test: cells; details: Homo sapiens, NCI-H23, 48 h
[10] = tested on: NCI-H460; test: cells; details: Homo sapiens, NCI-H460, 48 h
[11] = tested on: COLO 205; test: cells; details: Homo sapiens, COLO 205, 48 h
[12] = tested on: HCC-2998; test: cells; details: Homo sapiens, HCC 2998, 48 h
[13] = tested on: HCT-116; test: cells; details: Homo sapiens, HCT-116, 48 h
[14] = tested on: HCT-15; test: cells; details: Homo sapiens, HCT-15, 48 h
[15] = tested on: HT29; test: cells; details: Homo sapiens, HT-29, 48 h
[16] = tested on: KM12; test: cells; details: Homo sapiens, KM12, 48 h
[17] = tested on: SW-620; test: cells; details: Homo sapiens, SW-620, 48 h
[18] = tested on: SF-268; test: cells; details: Homo sapiens, SF-268, 48 h
[19] = tested on: SF-295; test: cells; details: Homo sapiens, SF-295, 48 h
[20] = tested on: U251; test: cells; details: Homo sapiens, U-251, 48 h
[21] = tested on: LOX IMVI; test: cells; details: Homo sapiens, 48 h
[22] = tested on: MALME-3M; test: cells; details: Homo sapiens, 48 h
[23] = tested on: SK-MEL-2; test: cells; details: Homo sapiens, SK-MEL-2, 48 h
[24] = tested on: SK-MEL-28; test: cells; details: Homo sapiens, SK-MEL-28, 48 h
[25] = tested on: SK-MEL-5; test: cells; details: Homo sapiens, SK-MEL-5, 48 h
[26] = tested on: IGROV1; test: cells; details: Homo sapiens, IGROV-1, 48 h
[27] = tested on: OVCAR-3; test: cells; details: Homo sapiens, OVCAR-3, 48 h
[28] = tested on: OVCAR-5; test: cells; details: Homo sapiens, OVCAR-5, 48 h
[29] = tested on: SK-OV-3; test: cells; details: Homo sapiens, SK-OV-3, 48 h
[30] = tested on: 786-0; test: cells; details: Homo sapiens, 786-0, 48 h
[31] = tested on: A498; test: cells; details: Homo sapiens, A498, 48 h
[32] = tested on: ACHN; test: cells; details: Homo sapiens, 48 h
[33] = tested on: CAKI-1; test: cells; details: Homo sapiens, CAKI-1, 48 h
[34] = tested on: UO-31; test: cells; details: Homo sapiens, UO-31, 48 h
[35] = tested on: PC-3; test: cells; details: Homo sapiens, PC-3, 48 h
[36] = tested on: MDA-MB-231/ATCC; test: cells; details: Homo sapiens, MDA-MB-231, 48 h
[37] = tested on: T-47D; test: cells; details: Homo sapiens, T47D, 48 h

In the case of `COc1cc(/C=C/C(=O)c2ccc(C)cc2)ccc1Oc1nc(Nc2ccc(F)cc2)nc(N(C)C)n1` [21b], the hemolysis at 24 h, 200 µg/mL [1] is reported as 13%, the GI50 [2] is reported as 3.92 µM and the CC50 ([2]; read-out: LC50) is reported as greater than 100 µM. The GI50 ([3]; K-562, 48 h) was 4.2 µM, the CC50 ([3]; read-out: LC50) was greater than 100 µM and the GI50 [4] was 2800 nM. The CC50 ([4]; read-out: LC50) was greater than 100 µM, the GI50 [5] was 45.8 µM and the CC50 ([5]; read-out: LC50) was greater than 100 µM. The GI50 [6] was 6.71 µM, the CC50 ([6]; read-out: LC50) was greater than 100 µM and the GI50 [7] was 32.2 µM. It also gave a CC50 ([7]; read-out: LC50) greater than 100 µM, a GI50 [8] of 4.57 µM and a CC50 ([8]; read-out: LC50) greater than 100 µM. It also gave a GI50 [9] of 5.52 µM, a CC50 ([9]; read-out: LC50) greater than 100 µM and a GI50 [10] of 12.1 µM. It also gave a CC50 ([10]; read-out: LC50) greater than 100 µM, a GI50 [11] of 41.7 µM and a CC50 ([11]; read-out: LC50) greater than 100 µM. For the same compound, the GI50 [12] was 20.5 µM, the CC50 ([12]; read-out: LC50) was greater than 100 µM and the GI50 [13] was 2280 nM. For the same compound, the CC50 ([13]; read-out: LC50) was 24.4 µM, the GI50 [14] was 4.73 µM and the CC50 ([14]; read-out: LC50) was 43.4 µM. The GI50 [15] was 8.15 µM, the CC50 ([15]; read-out: LC50) was greater than 100 µM and the GI50 [16] was 19.3 µM. The CC50 ([16]; read-out: LC50) was greater than 100 µM, the GI50 [17] was 2360 nM and the CC50 ([17]; read-out: LC50) was 20.1 µM. It also gave a GI50 [18] of 13.9 µM, a CC50 ([18]; read-out: LC50) greater than 100 µM and a GI50 [19] of 8.61 µM. The CC50 ([19]; read-out: LC50) was greater than 100 µM, the GI50 ([20]; U251, 48 h) was 3.32 µM and the CC50 ([20]; read-out: LC50) was greater than 100 µM. For the same compound, the GI50 [21] was 1840 nM, the CC50 ([21]; read-out: LC50, LOX IMVI, 48 h) was 6.69 µM and the GI50 [22] was 15.4 µM. It also gave a CC50 ([22]; read-out: LC50) of 72.3 µM, a GI50 [23] of 8.83 µM and a CC50 ([23]; read-out: LC50) greater than 100 µM. It also gave a GI50 [24] of 12.3 µM, a CC50 ([24]; read-out: LC50) of 79.6 µM and a GI50 [25] of 5.14 µM. The CC50 ([25]; read-out: LC50) was 78.5 µM, the GI50 [26] was 13.8 µM and the CC50 ([26]; read-out: LC50) was 99.1 µM. The GI50 [27] was 13 µM, the CC50 ([27]; read-out: LC50) was greater than 100 µM and the GI50 [28] was 16.5 µM. For the same compound, the CC50 ([28]; read-out: LC50) was greater than 100 µM, the GI50 [29] was 48.9 µM and the CC50 ([29]; read-out: LC50) was greater than 100 µM. It also gave a GI50 [30] of 13.3 µM, a CC50 ([30]; read-out: LC50) greater than 100 µM and a GI50 [31] of 41.8 µM. It also gave a CC50 ([31]; read-out: LC50) greater than 100 µM, a GI50 [32] of 9.58 µM and a CC50 ([32]; read-out: LC50) of 96.5 µM. It also gave a GI50 [33] of 6.43 µM, a CC50 ([33]; read-out: LC50) greater than 100 µM and a GI50 [34] of 4.2 µM. It also gave a CC50 ([34]; read-out: LC50) greater than 100 µM, a GI50 [35] of 8.85 µM and a CC50 ([35]; read-out: LC50) greater than 100 µM. It also gave a GI50 [36] of 5.24 µM, a CC50 ([36]; read-out: LC50) of 50.8 µM and a GI50 [37] of 3.57 µM. The CC50 ([37]; read-out: LC50) was greater than 100 µM.
